From PubChem BioAssay AID330 (DTP/NCI, 2004)
Values joined by “and” are separate entries in the source; they are usually repeats but may differ in a detail not shown here. Equal values may be shown once. Toxic doses and inconclusive results are not listed. How the source made its calls: active means survival T/C of 150% or more; inactive means T/C below 125% in these data.

Test system: P388 leukemia ip, CD2F1 mice, survival T/C
Test: NCI In Vivo Anticancer Drug Screen. Data for tumor model P388 Leukemia (intraperitoneal) in CD2F1 (CDF1) mice
Details: endpoint: median survival time, higher = longer survival
Outline: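 Mice carrying the transplanted tumor received test compound or vehicle. Survival was recorded in each group, and the value is the treated-group measurement divided by that of the vehicle-treated control group.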

[1] = dose: 25.0 mg/kg/injection, schedule: Q01DX001 (ip), vehicle: saline with Tween-80
[2] = dose: 50.0 mg/kg/injection, schedule: Q01DX001 (ip), vehicle: saline with Tween-80
[3] = dose: 100.0 mg/kg/injection, schedule: Q01DX001 (ip), vehicle: saline with Tween-80
[4] = dose: 100.0 mg/kg/injection, schedule: Q04DX002 (ip), vehicle: saline
[5] = dose: 25.0 mg/kg/injection, schedule: Q04DX003 (ip), vehicle: saline with Tween-80
[6] = dose: 50.0 mg/kg/injection, schedule: Q04DX003 (ip), vehicle: saline with Tween-80
[7] = dose: 100.0 mg/kg/injection, schedule: Q04DX003 (ip), vehicle: saline with Tween-80
[8] = dose: 50.0 mg/kg/injection, schedule: Q01DX005 (ip), vehicle: Klucel (hydroxypropylcellulose) (HPC)
[9] = dose: 100.0 mg/kg/injection, schedule: Q01DX005 (ip), vehicle: Klucel (hydroxypropylcellulose) (HPC)
[10] = dose: 200.0 mg/kg/injection, schedule: Q01DX005 (ip), vehicle: Klucel (hydroxypropylcellulose) (HPC)
[11] = dose: 25.0 mg/kg/injection, schedule: Q01DX009 (ip), vehicle: Klucel (hydroxypropylcellulose) (HPC)
[12] = dose: 50.0 mg/kg/injection, schedule: Q01DX009 (ip), vehicle: Klucel (hydroxypropylcellulose) (HPC)
[13] = dose: 100.0 mg/kg/injection, schedule: Q01DX009 (ip), vehicle: Klucel (hydroxypropylcellulose) (HPC)
[14] = dose: 60.0 mg/kg/injection, schedule: Q01DX005 (ip), vehicle: saline with Tween-80
[15] = dose: 100.0 mg/kg/injection, schedule: Q01DX001 (ip), vehicle: Klucel (hydroxypropylcellulose) (HPC)
[16] = dose: 25.0 mg/kg/injection, schedule: Q04DX003 (ip), vehicle: Klucel (hydroxypropylcellulose) (HPC)
[17] = dose: 120.0 mg/kg/injection, schedule: Q01DX005 (ip), vehicle: saline with Tween-80
[18] = dose: 100.0 mg/kg/injection, schedule: Q01DX009 (ip), vehicle: saline
[19] = dose: 25.0 mg/kg/injection, schedule: Q01DX009 (ip), vehicle: saline with Tween-80

Measured: T/C

CC(C)NCc1ccccc1Sc1ccccc1CNC(C)C
inactive: [1] 99 % of control | dose: 25.0 mg/kg/injection, schedule: Q04DX002 (ip), vehicle: saline 103 % of control | [2] 98 % of control | dose: 50.0 mg/kg/injection, schedule: Q04DX002 (ip), vehicle: saline 103 % of control | [3] 98 % of control | [4] 103 % of control

c1ccc(CN2CCC(N3CNc4ccccc43)CC2)cc1
inactive: [5] 109 % of control | [6] 114 % of control | [7] 88 % of control

O=S(=O)(O)c1cnc2nccn2c1
inactive: dose: 50.0 mg/kg/injection, schedule: Q04DX003 (ip), vehicle: suspension in saline 99 % of control | dose: 100.0 mg/kg/injection, schedule: Q04DX003 (ip), vehicle: suspension in saline 110 % of control | dose: 200.0 mg/kg/injection, schedule: Q04DX003 (ip), vehicle: suspension in saline 105 % of control

COC(=O)CCSC(=S)NCc1ccccc1
inactive: [8] 98 % of control | [9] 96 % of control | [10] 102 % of control

CC(=O)C1CCC=C2C1CC1CC2C1(C)C (stereo not drawn)
inactive: [11] 100 % of control | [12] 100 % of control | [13] 104 % of control

[Cl][Hg][CH]1CCCC2OC(C(Cl)(Cl)Cl)OC21 (stereo not drawn)
inactive: dose: 3.13 mg/kg/injection, schedule: Q01DX001 (ip), vehicle: saline with Tween-80 113 % of control | dose: 6.25 mg/kg/injection, schedule: Q01DX001 (ip), vehicle: saline with Tween-80 97 % of control | dose: 12.5 mg/kg/injection, schedule: Q01DX001 (ip), vehicle: saline with Tween-80 94 % of control

COc1ccc(-c2cn3c([nH]c(=O)c4ccccc43)c2C#N)cc1
inactive: dose: 15.0 mg/kg/injection, schedule: Q01DX005 (ip), vehicle: saline with Tween-80 86 % of control | dose: 30.0 mg/kg/injection, schedule: Q01DX005 (ip), vehicle: saline with Tween-80 88 % of control | [14] 86 % of control

CC(=O)CC(=O)c1c(-c2ccccc2)n(C)c2ccccc12
inactive: [15] 98 % of control | dose: 200.0 mg/kg/injection, schedule: Q01DX001 (ip), vehicle: Klucel (hydroxypropylcellulose) (HPC) 101 % of control | dose: 400.0 mg/kg/injection, schedule: Q01DX001 (ip), vehicle: Klucel (hydroxypropylcellulose) (HPC) 102 % of control

O=[N+]([O-])c1ccc(NN=C2CCCCC2)c([N+](=O)[O-])c1
inactive: [16] 103 % of control | dose: 50.0 mg/kg/injection, schedule: Q04DX003 (ip), vehicle: Klucel (hydroxypropylcellulose) (HPC) 104 % of control | dose: 100.0 mg/kg/injection, schedule: Q04DX003 (ip), vehicle: Klucel (hydroxypropylcellulose) (HPC) 105 % of control | dose: 200.0 mg/kg/injection, schedule: Q04DX003 (ip), vehicle: Klucel (hydroxypropylcellulose) (HPC) 112 % of control

CN=C1c2ccccc2C(=O)c2c1c(O)n(-c1ccccc1)c2O
inactive: [8] 96 % of control | [9] 100 % of control

CCN(Cc1ccc(CN(CC)C(=O)c2c(-c3ccccc3)noc2C)cc1)C(=O)c1c(-c2ccccc2)noc1C
inactive: dose: 50.0 mg/kg/injection, schedule: Q01DX009 (ip), vehicle: suspension in saline 90 % of control | dose: 100.0 mg/kg/injection, schedule: Q01DX009 (ip), vehicle: suspension in saline 92 % of control | dose: 200.0 mg/kg/injection, schedule: Q01DX009 (ip), vehicle: suspension in saline 86 % of control and 94 % of control

O=C(OC1CCCc2ccccc21)c1ccc(N=Nc2ccccc2)cc1 (stereo not drawn)
inactive: [14] 95 % of control | [17] 88 % of control

CC1CCC2(OC1)OC1CC3C4CC=C5CC(O)CCC5(C)C4CCC3(C)C1C2C (stereo not drawn)
inactive: [8] 100 % of control | [9] 89 % of control | [10] 86 % of control

CCCCCC(Nc1nncs1)Nc1nncs1
inactive: [14] 94 % of control | [17] 96 % of control | dose: 240.0 mg/kg/injection, schedule: Q01DX005 (ip), vehicle: saline with Tween-80 105 % of control

CC1=CC(=C2C=C(C)C(=O)C(C)=C2)C=C(C)C1=O
inactive: [18] 97 % of control and 98 % of control | dose: 200.0 mg/kg/injection, schedule: Q01DX009 (ip), vehicle: saline 91 % of control and 95 % of control | dose: 400.0 mg/kg/injection, schedule: Q01DX009 (ip), vehicle: saline 93 % of control and 94 % of control

OCCOCCN1CCN(C(c2ccccc2)c2ccccc2)CC1
inactive: dose: 50.0 mg/kg/injection, schedule: Q01DX009 (ip), vehicle: saline 103 % of control | [18] 103 % of control

O=C(O)c1c(Cl)cccc1Cl
inactive: [19] 109 % of control | [5] 100 % of control | dose: 50.0 mg/kg/injection, schedule: Q01DX009 (ip), vehicle: saline with Tween-80 100 % of control | [6] 95 % of control | dose: 100.0 mg/kg/injection, schedule: Q01DX009 (ip), vehicle: saline with Tween-80 100 % of control | [7] 95 % of control

Cc1ccccc1-n1c(SCC(=O)NC(=O)Nc2cccc(Cl)c2)nc2c(Br)cc(Br)cc2c1=O
inactive: dose: 60.0 mg/kg/injection, schedule: Q01DX005 (ip), vehicle: Klucel (hydroxypropylcellulose) (HPC) 99 % of control | dose: 120.0 mg/kg/injection, schedule: Q01DX005 (ip), vehicle: Klucel (hydroxypropylcellulose) (HPC) 101 % of control | dose: 240.0 mg/kg/injection, schedule: Q01DX005 (ip), vehicle: Klucel (hydroxypropylcellulose) (HPC) 87 % of control

[Cl][Pt+2][Cl].[NH-]c1cccc(C(F)(F)F)c1.[NH-]c1cccc(C(F)(F)F)c1
inactive: dose: 3.12 mg/kg/injection, schedule: Q01DX009 (ip), vehicle: Klucel (hydroxypropylcellulose) (HPC) 103 % of control and 111 % of control | dose: 6.25 mg/kg/injection, schedule: Q01DX009 (ip), vehicle: Klucel (hydroxypropylcellulose) (HPC) 97 % of control | dose: 12.5 mg/kg/injection, schedule: Q01DX009 (ip), vehicle: Klucel (hydroxypropylcellulose) (HPC) 111 % of control | [11] 106 % of control

COc1ccc(CCNC(=O)CC2CCN(Cc3ccccc3)CC2)cc1OC
inactive: [8] 100 % of control | [9] 100 % of control | [10] 95 % of control

NC(=S)c1ccc(C=Nc2ccc(I)cc2)cc1
inactive: dose: 25.0 mg/kg/injection, schedule: Q01DX001 (ip), vehicle: Klucel (hydroxypropylcellulose) (HPC) 93 % of control | dose: 50.0 mg/kg/injection, schedule: Q01DX001 (ip), vehicle: Klucel (hydroxypropylcellulose) (HPC) 102 % of control | [15] 100 % of control

CC(C)N=C(Nc1ccccc1)c1ccccc1
inactive: dose: 12.5 mg/kg/injection, schedule: Q01DX009 (ip), vehicle: saline with Tween-80 93 % of control | [19] 89 % of control | dose: 50.0 mg/kg/injection, schedule: Q01DX009 (ip), vehicle: saline + Tween-80 + alcohol 88 % of control

COCC1CCCN1 (stereo not drawn)
inactive: [4] 104 % of control | dose: 200.0 mg/kg/injection, schedule: Q04DX002 (ip), vehicle: saline 110 % of control

Nc1cccc2cccc([N+](=O)[O-])c12
inactive: [1] 97 % of control | [2] 110 % of control | [3] 99 % of control | dose: 200.0 mg/kg/injection, schedule: Q01DX001 (ip), vehicle: saline with Tween-80 98 % of control

CC1CCCCC12C(C#N)(C#N)C2(C#N)C#N (stereo not drawn)
inactive: dose: 12.5 mg/kg/injection, schedule: Q04DX003 (ip), vehicle: Klucel (hydroxypropylcellulose) (HPC) 101 % of control | [16] 102 % of control

O=C(/C=C/c1ccccc1)C1CCCCC1
inactive: [12] 107 % of control | [13] 107 % of control | dose: 200.0 mg/kg/injection, schedule: Q01DX009 (ip), vehicle: Klucel (hydroxypropylcellulose) (HPC) 106 % of control

N#Cc1ccc(NN=NCCF)cc1
inactive: dose: 6.25 mg/kg/injection, schedule: Q01DX005 (ip), vehicle: distilled water + Tween-80 100 % of control | dose: 6.25 mg/kg/injection, schedule: Q01DX005 (ip), vehicle: saline with Tween-80 117 % of control | dose: 12.5 mg/kg/injection, schedule: Q01DX005 (ip), vehicle: saline with Tween-80 121 % of control

COc1ccc(CCNC(=O)CC2CC(=O)N(CCc3ccc(OC)c(OC)c3)C(=O)C2)cc1OC
inactive: [8] 101 % of control | [9] 98 % of control | [10] 101 % of control
